Reference: PubChem BioAssay (NCI)
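Following 48 hours of exposure in 96-well plates, responses at five concentrations were used to interpolate endpoints linearly. TGI marks complete inhibition of growth.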

Tests used:
Assay in all cases: growth of human tumour cells (NCI), 48 h
[1] = test system: CCRF-CEM leukemia
[2] = test system: SF-539 CNS
[3] = test system: SNB-19 CNS
[4] = test system: HOP-92 NSCLC
[5] = test system: HL-60(TB) leukemia
[6] = test system: CAKI-1 renal
[7] = test system: NCI-H522 lung
[8] = test system: M14 melanoma
[9] = test system: HCC-2998 colon
[10] = test system: COLO 205 colon
[11] = test system: ACHN renal
[12] = test system: UACC-62 melanoma
[13] = test system: NCI-H226 lung
[14] = test system: SF-295 CNS
[15] = test system: RPMI-8226 leukemia
[16] = test system: LOX IMVI melanoma
[17] = test system: A549 NSCLC
[18] = test system: A498 renal

Row | SMILES | TGI [1] [µM] | TGI [2] [µM] | TGI [3] [µM] | TGI [4] [µM] | TGI [5] [µM] | TGI [6] [µM] | TGI [7] [µM] | TGI [8] [µM] | TGI [9] [µM] | TGI [10] [µM] | TGI [11] [µM] | TGI [12] [µM] | TGI [13] [µM] | TGI [14] [µM] | TGI [15] [µM] | TGI [16] [µM] | TGI [17] [µM] | TGI [18] [µM]
1 | O=C(NCCNCCNCCNC(=O)c1cc(-c2ccccc2)nc2ccccc12)c1cc(-c2ccccc2)nc2ccccc12 | > 20.5 | 3.85 | 8.93 | 7.81 | 3.85 | 29.4 | 3.13 | 3.39 | 3.1 | 4 | 4.91 | 3.97 | 7.38 | 3.09 | 6.51 | 3.03 | 18.6 | 9.68
2 | Cc1ccc2c(c1)SC(c1cc3c(cc1Br)OCO3)S2 (configuration not stated) | > 31.6 | > 31.6 | > 100 | > 31.6 | > 31.6 | > 100 | > 31.6 | > 31.6 | > 31.6 | > 31.6 | > 31.6 | > 31.6 | > 31.6 | > 31.6 | > 31.6 | > 31.6 | > 31.6 | > 31.6
3 | COc1cc(Br)cc2nc(-c3cccs3)oc12 | > 100 | > 100 | > 100 | > 100 | > 100 | > 100 | > 100 | > 100 | > 100 | > 100 | > 100 | > 100 | > 100 | > 100 | > 100 | > 100 | > 100 | > 100
4 | C[n+]1ccc(-c2cc[n+](C)cc2)cc1 | > 100 | > 46.4 | > 100 | > 63.6 | 24.8 | > 100 | > 34.2 | > 35.9 | 97.8 | > 38.3 | > 100 |  | 43.1 | > 37.6 | > 100 | > 48.1 | > 95 | > 50.3
5 | CCO/C=N/C1=C(C#N)C(c2ccc(Cl)cc2)c2c(-c3ccccc3)nn(-c3ccccc3)c2O1 (configuration not stated) | > 100 | > 26.2 | 24.7 | 29.1 | > 100 | 36 | 18.2 | 20.3 | > 38.9 | > 100 | 29.5 | 33.5 | 46.9 | 32.2 | > 100 | 31 | 21.5 | 19.9
6 | CCN(CC)CCn1c2cc3c(cc2c(=O)c2cccnc21)OCO3 | > 10 | > 10 | > 10 | > 10 | > 10 | > 10 | > 10 | > 10 | > 10 | > 10 | > 10 | > 10 | > 10 | > 10 | > 10 | > 10 | > 10 | > 10
